In ChEMBL document CHEMBL3832761, “MMV Pathogen Box Bioactivity Data” (2017):
In brackets after ≈: the same amount, converted by molar mass.

What was measured:
Type in all cases: functional
[1] = test system: Mycobacterium tuberculosis; test: AntiMycobacterium tuberculosis activity Non-Replicating form: Average MIC90 (uM)
[2] = test system: Mycobacterium tuberculosis; test: AntiMycobacterium tuberculosis activity 1-week GAST/Fe MIC (uM); conditions: 168 h
[3] = test system: Mycobacterium tuberculosis; test: AntiMycobacterium tuberculosis activity 2-week GAST/Fe MIC (uM); conditions: 336 h
[4] = test system: Mycobacterium tuberculosis; test: AntiMycobacterium tuberculosis activity 1-week 7H9/ADC/Tw MIC (uM); conditions: 168 h
[5] = test system: Mycobacterium tuberculosis; test: AntiMycobacterium tuberculosis activity 2-week 7H9/ADC/Tw MIC (uM); conditions: 336 h
[6] = test system: Mycobacterium tuberculosis; test: AntiMycobacterium tuberculosis activity 2-week Alamar Blue 7H9/ADC/Tw MIC (uM); conditions: 336 h
[7] = test system: Mycobacterium tuberculosis; test: AntiMycobacterium tuberculosis activity 1-week 7H9/glucose/BSA/Tx MIC (uM); conditions: 168 h
[8] = test system: Mycobacterium tuberculosis; test: AntiMycobacterium tuberculosis activity 2-week 7H9/glucose/BSA/Tx MIC (uM); conditions: 336 h
[9] = test system: Mycobacterium tuberculosis; test: AntiMycobacterium tuberculosis activity 1-week 7H9/DPPC/cholesterol/BSA/Tx MIC (uM); conditions: 168 h
[10] = test system: Mycobacterium tuberculosis; test: AntiMycobacterium tuberculosis activity 2-week 7H9/DPPC/cholesterol/BSA/Tx MIC (uM); conditions: 336 h
[11] = test system: Mycobacterium tuberculosis; test: AntiMycobacterium tuberculosis activity 1-week 7H9/cholesterol/BSA/Tx MIC (uM); conditions: 168 h
[12] = test system: Mycobacterium tuberculosis; test: AntiMycobacterium tuberculosis activity 2-week Alamar Blue 7H9/cholesterol/BSA/Tx MIC (uM); conditions: 336 h
[13] = test system: Mycobacterium tuberculosis; test: (§1) AntiMycobacterium tuberculosis activity day 10 in 7H9/2.5mM butyrate/pH6/0.1mM nitrite MIC90 (uM); conditions: 240 h
[14] = test system: Mycobacterium tuberculosis; test: AntiMycobacterium tuberculosis activity day 21 in 7H9/2.5mM butyrate/pH6/0.1mM nitrite MIC90 (uM); conditions: 504 h
[15] = test system: Mycobacterium tuberculosis; test: as §1; conditions: 240 h; remark: listed apart in the source
[16] = test system: Mycobacterium tuberculosis; test: AntiMycobacterium tuberculosis activity day 21 MIC99 in 7H9/2.5mM butyrate/pH6/0.1mM nitrite MIC99 (uM); conditions: 504 h
[17] = test system: Mycobacterium tuberculosis; test: AntiMycobacterium tuberculosis activity Replicating form: Average MIC90 (uM)
[18] = test system: HepG2; test: HepG2 CC50 (uM) Cytotoxicity; conditions: Homo sapiens

SMILES: Nc1c2c(nc3sc4c(c13)CCCC4)CCCC2
- MIC90 [1]: 94.6 µM (≈ 24.4 µg/mL)
- MIC [2]: 1.56 µM (≈ 0.403 µg/mL)
- MIC [3]: 2.3 µM (≈ 0.594 µg/mL)
- MIC [4]: 25 µM (≈ 6.46 µg/mL)
- MIC [5]: 37 µM (≈ 9.56 µg/mL)
- MIC [6]: 12.5 µM (≈ 3.23 µg/mL)
- MIC [7]: 19 µM (≈ 4.91 µg/mL)
- MIC [8]: 25 µM (≈ 6.46 µg/mL)
- MIC [9]: 12.5 µM (≈ 3.23 µg/mL)
- MIC [10]: 25 µM (≈ 6.46 µg/mL)
- MIC [11]: 12.5 µM (≈ 3.23 µg/mL)
- MIC [12]: 25 µM (≈ 6.46 µg/mL)
- MIC90 [13]: 50 µM (≈ 12.9 µg/mL)
- MIC90 [14]: 50 µM (≈ 12.9 µg/mL)
- MIC90 [15]: > 50 µM
- MIC [16]: > 50 µM
- MIC90 [17]: 52 µM (≈ 13.4 µg/mL)
- CC50 [18]: 34.9 µM

SMILES: CNc1snc(C)c1C(=O)NCCOc1ccc(OC)cc1
- MIC90 [1]: 19.8 µM (≈ 6.36 µg/mL)
- MIC [2]: 0.2 µM (≈ 0.0643 µg/mL)
- MIC [3]: 0.78 µM (≈ 0.251 µg/mL)
- MIC [4]: > 50 µM
- MIC [5]: > 50 µM
- MIC [6]: 12.5 µM (≈ 4.02 µg/mL)
- MIC [7]: 50 µM (≈ 16.1 µg/mL)
- MIC [8]: > 50 µM
- MIC [9]: 19 µM (≈ 6.11 µg/mL)
- MIC [10]: 50 µM (≈ 16.1 µg/mL)
- MIC [11]: 3.13 µM (≈ 1.01 µg/mL)
- MIC [12]: 3.13 µM (≈ 1.01 µg/mL)
- MIC90 [13]: 6.25 µM (≈ 2.01 µg/mL)
- MIC90 [14]: 50 µM (≈ 16.1 µg/mL)
- MIC90 [15]: 6.25 µM (≈ 2.01 µg/mL)
- MIC [16]: 50 µM (≈ 16.1 µg/mL)
- MIC90 [17]: > 100 µM
- CC50 [18]: > 100 µM

SMILES: O=C1O[C@@H](COc2ccon2)CN1c1cc(F)c(C2=CCN(Cc3ccccc3)CC2)c(F)c1
- MIC90 [1]: 2.88 µM (≈ 1.35 µg/mL)
- MIC [2]: 0.78 µM (≈ 0.365 µg/mL)
- MIC [3]: 1.56 µM (≈ 0.729 µg/mL)
- MIC [4]: 0.39 µM (≈ 0.182 µg/mL)
- MIC [5]: 0.6 µM (≈ 0.28 µg/mL)
- MIC [6]: 0.39 µM (≈ 0.182 µg/mL)
- MIC [7]: 0.78 µM (≈ 0.365 µg/mL)
- MIC [8]: 0.78 µM (≈ 0.365 µg/mL)
- MIC [9]: 1.56 µM (≈ 0.729 µg/mL)
- MIC [10]: 1.56 µM (≈ 0.729 µg/mL)
- MIC [11]: 1.2 µM (≈ 0.561 µg/mL)
- MIC [12]: 0.6 µM (≈ 0.28 µg/mL)
- MIC90 [13]: 6.25 µM (≈ 2.92 µg/mL)
- MIC90 [14]: 6.25 µM (≈ 2.92 µg/mL)
- MIC90 [15]: 25 µM (≈ 11.7 µg/mL)
- MIC [16]: 25 µM (≈ 11.7 µg/mL)
- MIC90 [17]: 3.51 µM (≈ 1.64 µg/mL)
- CC50 [18]: 30.4 µM

SMILES: COc1ccc(Nc2ccccc2NC(=O)c2ccc(O)nc2)cc1
- MIC90 [1]: 17.8 µM (≈ 5.97 µg/mL)
- MIC [2]: < 0.02 µM
- MIC [3]: < 0.02 µM
- MIC [4]: 37 µM (≈ 12.4 µg/mL)
- MIC [5]: 37 µM (≈ 12.4 µg/mL)
- MIC [6]: 12.5 µM (≈ 4.19 µg/mL)
- MIC [7]: 37 µM (≈ 12.4 µg/mL)
- MIC [8]: 37 µM (≈ 12.4 µg/mL)
- MIC [9]: 0.6 µM (≈ 0.201 µg/mL)
- MIC [10]: 2.3 µM (≈ 0.771 µg/mL)
- MIC [11]: 0.3 µM (≈ 0.101 µg/mL)
- MIC [12]: 0.6 µM (≈ 0.201 µg/mL)
- MIC90 [13]: 1.5 µM (≈ 0.503 µg/mL)
- MIC90 [14]: 6.25 µM (≈ 2.1 µg/mL)
- MIC90 [15]: > 50 µM
- MIC [16]: > 50 µM
- MIC90 [17]: 28.6 µM (≈ 9.59 µg/mL)
- CC50 [18]: 42.5 µM

SMILES: O=C(Nc1ccc(C(F)(F)F)c(C(F)(F)F)c1)c1cc(Cl)ccc1O
- MIC90 [1]: 0.1 µM (≈ 0.0384 µg/mL)
- MIC [2]: 1.56 µM (≈ 0.599 µg/mL)
- MIC [3]: 2.3 µM (≈ 0.882 µg/mL)
- MIC [4]: 3.13 µM (≈ 1.2 µg/mL)
- MIC [5]: 4.7 µM (≈ 1.8 µg/mL)
- MIC [6]: 4.7 µM (≈ 1.8 µg/mL)
- MIC [7]: 1.56 µM (≈ 0.599 µg/mL)
- MIC [8]: 3.13 µM (≈ 1.2 µg/mL)
- MIC [9]: 2.3 µM (≈ 0.882 µg/mL)
- MIC [10]: 3.13 µM (≈ 1.2 µg/mL)
- MIC [11]: 1.56 µM (≈ 0.599 µg/mL)
- MIC [12]: 1.56 µM (≈ 0.599 µg/mL)
- MIC90 [13]: 1.5 µM (≈ 0.576 µg/mL)
- MIC90 [14]: 1.5 µM (≈ 0.576 µg/mL)
- MIC90 [15]: 1.5 µM (≈ 0.576 µg/mL)
- MIC [16]: 1.5 µM (≈ 0.576 µg/mL)
- MIC90 [17]: 2.33 µM (≈ 0.894 µg/mL)
- CC50 [18]: 0.7 µM

SMILES: CC(=O)NCC1CN(c2ccc(-c3ccc(CNCc4cn[nH]n4)cc3)c(F)c2)C(=O)O1 (stereo unspecified)
- MIC90 [1]: 0.31 µM (≈ 0.136 µg/mL)
- MIC [2]: 0.1 µM (≈ 0.0438 µg/mL)
- MIC [3]: 0.15 µM (≈ 0.0658 µg/mL)
- MIC [4]: 0.3 µM (≈ 0.132 µg/mL)
- MIC [5]: 0.39 µM (≈ 0.171 µg/mL)
- MIC [6]: 0.39 µM (≈ 0.171 µg/mL)
- MIC [7]: 0.2 µM (≈ 0.0877 µg/mL)
- MIC [8]: 0.3 µM (≈ 0.132 µg/mL)
- MIC [9]: 0.1 µM (≈ 0.0438 µg/mL)
- MIC [10]: 0.3 µM (≈ 0.132 µg/mL)
- MIC [11]: 0.3 µM (≈ 0.132 µg/mL)
- MIC [12]: 0.39 µM (≈ 0.171 µg/mL)
- MIC90 [13]: 0.19 µM (≈ 0.0833 µg/mL)
- MIC90 [14]: 0.39 µM (≈ 0.171 µg/mL)
- MIC90 [15]: 1.5 µM (≈ 0.658 µg/mL)
- MIC [16]: 1.5 µM (≈ 0.658 µg/mL)
- MIC90 [17]: 0.51 µM (≈ 0.224 µg/mL)
- CC50 [18]: > 100 µM

SMILES: O=C(CCC1CCCCC1)Nc1cccc(-c2nnc(-c3ccco3)o2)c1
- MIC90 [1]: 13.7 µM (≈ 4.99 µg/mL)
- MIC [2]: 1.2 µM (≈ 0.439 µg/mL)
- MIC [3]: 1.2 µM (≈ 0.439 µg/mL)
- MIC [4]: 1.2 µM (≈ 0.439 µg/mL)
- MIC [5]: 2.3 µM (≈ 0.84 µg/mL)
- MIC [6]: 2.3 µM (≈ 0.84 µg/mL)
- MIC [7]: 2.3 µM (≈ 0.84 µg/mL)
- MIC [8]: 3.13 µM (≈ 1.14 µg/mL)
- MIC [9]: 2.3 µM (≈ 0.84 µg/mL)
- MIC [10]: 3.13 µM (≈ 1.14 µg/mL)
- MIC [11]: 1.56 µM (≈ 0.57 µg/mL)
- MIC [12]: 3.13 µM (≈ 1.14 µg/mL)
- MIC90 [13]: 1.5 µM (≈ 0.548 µg/mL)
- MIC90 [14]: 1.5 µM (≈ 0.548 µg/mL)
- MIC90 [15]: 1.5 µM (≈ 0.548 µg/mL)
- MIC [16]: 1.5 µM (≈ 0.548 µg/mL)
- MIC90 [17]: 5.42 µM (≈ 1.98 µg/mL)
- CC50 [18]: > 100 µM
